Data as given in ChEMBL document CHEMBL1151823, “5-Bromo-8-methoxy-1-methyl-beta-carboline, an alkaloid from the New Zealand marine bryozoan Pterocella vesiculosa” (J Nat Prod, 2009).
≈ marks a conversion by molar mass, not a printed value.

Experiments:
[1] = test system: P388; assay: Cytotoxicity against mouse P388 cells; format: functional, cell-based
[2] = test system: Bacillus subtilis; assay: Antimicrobial activity against Bacillus subtilis measured per disk; format: functional
[3] = test system: Candida albicans; assay: Antimicrobial activity against Candida albicans measured per disk; format: functional
[4] = test system: Trichophyton mentagrophytes; assay: Antimicrobial activity against Trichophyton mentagrophytes measured per disk; format: functional

SMILES | IC50 [1] | MID [2] | MID [3] | MID [4]
CCc1nccc2c1[nH]c1ccccc12 | > 12.5 µg/mL | 7.5 µg/mL | 1.9 µg/mL | 1.9 µg/mL
C=Cc1[nH]ccc2c3ccccc3nc1-2 | 0.1 µg/mL (≈ 0.515 µM) | 1.9 µg/mL | 1.9 µg/mL | 0.1 µg/mL
Cc1nccc2c1[nH]c1ccccc12 [HARMAN] | > 12.5 µg/mL | 7.5 µg/mL | 1.9 µg/mL | 3.7 µg/mL
C=Cc1nccc2c1[nH]c1c(O)cccc12 | 0.1 µg/mL (≈ 0.476 µM) | 7.5 µg/mL | 15 µg/mL | 0.45 µg/mL
CCc1nccc2c1[nH]c1c(O)cccc12 | > 12.5 µg/mL | 30 µg/mL | 30 µg/mL | 30 µg/mL
COc1ccc(Br)c2c1[nH]c1c(C)nccc12 | 5.09 µg/mL (≈ 17.5 µM) | 2 µg/mL | 7.5 µg/mL | 7.5 µg/mL
C=Cc1nccc2c1[nH]c1c(OC(C)=O)cccc12 | 0.65 µg/mL (≈ 2.58 µM) | – | – | –
CCc1nccc2c1[nH]c1c(OC)cccc12 | > 12.5 µg/mL | >60 µg/mL | 7.5 µg/mL | 7.5 µg/mL
C=Cc1nccc2c1[nH]c1c(OC)cccc12 | 0.1 µg/mL (≈ 0.446 µM) | 7.5 µg/mL | 15 µg/mL | 0.45 µg/mL
